The values that follow come from paper PMC10797628.

Experiment [1] deals with T1, human 5-HT1A receptor (Homo sapiens, UniProt P08908).
T1 construct: host or cells: HEK293T
T1 sequence (P08908 1-422): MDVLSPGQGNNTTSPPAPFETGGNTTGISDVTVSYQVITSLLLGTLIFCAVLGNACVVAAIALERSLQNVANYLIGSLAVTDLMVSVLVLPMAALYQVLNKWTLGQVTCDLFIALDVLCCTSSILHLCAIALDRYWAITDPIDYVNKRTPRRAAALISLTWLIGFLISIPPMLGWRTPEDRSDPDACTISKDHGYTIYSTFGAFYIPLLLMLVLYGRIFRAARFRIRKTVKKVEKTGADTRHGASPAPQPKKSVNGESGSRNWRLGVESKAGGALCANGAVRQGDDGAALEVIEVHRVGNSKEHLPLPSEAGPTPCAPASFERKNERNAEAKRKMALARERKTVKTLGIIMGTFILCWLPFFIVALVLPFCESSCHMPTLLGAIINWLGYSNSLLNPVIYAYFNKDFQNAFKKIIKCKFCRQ
The experiment is described as follows: Radioligand binding (saturation and competition), WT 5-HT1A. The conditions noted are these: for Ki: Affinity (pKi ± SD) 5-HT1A.

The target of experiment [2] is T2, human 5-HT1B receptor (Homo sapiens, UniProt P28222).
T2 construct: host or cells: HEK293T
Kind of experiment: Radioligand binding (saturation and competition), WT 5-HT1B. The conditions noted are these: Affinity (pKi ± SD) 5-HT1B, WT receptor; [^3H]5-CT competition; mean ± SD.

Experiment [3] deals with T3, human 5-HT1D receptor (Homo sapiens, UniProt P28221).
T3 construct: host or cells: HEK293T
The experiment is described as follows: Radioligand binding (saturation and competition), WT 5-HT1D. The following applies: Affinity (pKi ± SD) 5-HT1D, WT receptor; [^3H]5-CT competition; mean ± SD.

In a further experiment the target is T4, human 5-HT1F receptor (Homo sapiens, UniProt P30939).
T4 construct: host or cells: HEK293T
T4 sequence (P30939 1-366): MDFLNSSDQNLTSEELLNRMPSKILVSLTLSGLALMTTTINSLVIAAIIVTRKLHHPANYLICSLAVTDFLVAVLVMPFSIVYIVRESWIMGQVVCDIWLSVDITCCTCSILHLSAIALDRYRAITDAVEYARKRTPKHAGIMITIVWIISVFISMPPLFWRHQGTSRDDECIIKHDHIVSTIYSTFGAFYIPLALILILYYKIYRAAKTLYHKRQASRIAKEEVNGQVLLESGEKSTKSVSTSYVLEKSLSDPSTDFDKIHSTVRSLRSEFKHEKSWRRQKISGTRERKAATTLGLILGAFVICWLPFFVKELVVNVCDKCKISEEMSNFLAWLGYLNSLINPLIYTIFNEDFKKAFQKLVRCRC
The experiment is described as follows: Radioligand binding (saturation and competition), WT 5-HT1F.

Experiment [4] has as its target T1, human 5-HT1A receptor. Kind of experiment: cAMP accumulation (LANCE Ultra TR-FRET) in HEK293T cells, WT 5-HT1A. The conditions noted are these: WT receptor; normalized to basal (0%) and 10 μM 5-CT (100%). The experiment is classed as cell-based. The procedure: (§1) Briefly, cells transfected with the desired receptor construct and compounds were incubated in the dark for 90 min at 37 °C. After incubation, cAMP detection reagents were added, and TR-FRET was used to quantify the cAMP produced.
(§2) The functional activity of compounds was determined by stimulating cells expressing the desired receptor with FSK and test compound in parallel with 12 known concentrations of cAMP. The known concentrations of cAMP were used to create a standard curve for each experiment that was used to interpolate the unknown values of cAMP in wells with test compounds. […] The EC50 and EMAX values were determined using the “dose response – log[agonist] vs response (three parameter)” nonlinear regression model in Prism and transformed to pEC50 values, reported as mean ± SD.
(§3) Summary of functional assay conditions at various 5-HT1 receptor point mutation constructs.
A general note: Changes in cAMP serve as a functional read-out for many G protein-coupled receptors.

Experiment [5] deals with T2, human 5-HT1B receptor. Kind of experiment: cAMP accumulation (LANCE Ultra TR-FRET) in HEK293T cells, WT 5-HT1B. The experiment is classed as cell-based. The conditions noted are these: WT receptor; normalized to basal (0%) and 10 μM 5-CT (100%). On the procedure:
as §1, §2, §3

Experiment [6] concerns the target T3, human 5-HT1D receptor. The experiment is described as follows: cAMP accumulation (LANCE Ultra TR-FRET) in HEK293T cells, WT 5-HT1D. The experiment is classed as cell-based. The conditions noted are these: WT receptor; normalized to basal (0%) and 10 μM 5-CT (100%). On the procedure:
as §1, §2, §3

The mark [7] stands for this setting: WT receptor, [^3H]5-CT competition, mean ± SD.

T2 sequence (P28222 whole entry): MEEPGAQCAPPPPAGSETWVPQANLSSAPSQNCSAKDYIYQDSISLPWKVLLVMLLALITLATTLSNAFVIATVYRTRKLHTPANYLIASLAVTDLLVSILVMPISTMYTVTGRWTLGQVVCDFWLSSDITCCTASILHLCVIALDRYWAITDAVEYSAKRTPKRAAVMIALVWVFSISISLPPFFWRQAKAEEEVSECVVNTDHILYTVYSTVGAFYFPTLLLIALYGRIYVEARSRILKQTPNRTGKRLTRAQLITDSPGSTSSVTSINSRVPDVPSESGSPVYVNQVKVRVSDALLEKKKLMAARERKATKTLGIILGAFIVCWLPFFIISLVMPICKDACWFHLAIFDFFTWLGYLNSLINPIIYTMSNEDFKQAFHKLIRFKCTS
T3 sequence (P28221 whole entry): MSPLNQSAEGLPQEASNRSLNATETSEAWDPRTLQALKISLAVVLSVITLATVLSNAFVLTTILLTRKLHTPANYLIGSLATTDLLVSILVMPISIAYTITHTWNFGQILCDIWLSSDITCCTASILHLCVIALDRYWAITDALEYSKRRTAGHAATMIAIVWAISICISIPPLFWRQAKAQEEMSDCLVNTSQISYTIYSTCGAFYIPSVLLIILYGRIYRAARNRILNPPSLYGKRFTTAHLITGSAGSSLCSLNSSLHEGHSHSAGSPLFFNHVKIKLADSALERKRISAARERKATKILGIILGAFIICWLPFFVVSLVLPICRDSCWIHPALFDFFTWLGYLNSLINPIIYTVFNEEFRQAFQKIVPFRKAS

With `CCCN(CCC)C1CCc2cccc(O)c2C1` (centres unmarked) [8-OH-DPAT, 8-hydroxy-N,N-dipropyl-1,2,3,4-tetrahydronaphthalen-2-amine, reference compound], the “higher affinity at the 5-HT1A receptor over 5-HT1B and 5-HT1D receptors” value on human 5-HT1A receptor [1] (affinity ratio) is given as 10–20 fold.
For orientation: Ki means the equilibrium dissociation constant of an inhibitor or competing ligand from its target. A lower Ki goes with higher affinity. As for `CN(C)[C@@H]1CCc2c(cccc2-c2ccccc2)C1` [(R)-5-PAT], the Ki on human 5-HT1A receptor [1] (setting [7]) was 1050 nM; at human 5-HT1B receptor [2], 1320 nM; at human 5-HT1D receptor [3] it was 282 nM; on human 5-HT1F receptor, above 10000 nM.
Turning to `CCCN(CCC)[C@@H]1CCc2cccc(O)c2C1` [(R)-8-OH-DPAT, 8-hydroxy-N,N-dipropyl-1,2,3,4-tetrahydronaphthalen-2-amine, reference compound], the “5-HT1A EMAX (%)” value on human 5-HT1A receptor [4] came to 95 ± 4%. Also, the “5-HT1B EMAX (%)” value at human 5-HT1B receptor [5] was determined as 87 ± 4%. The “5-HT1D EMAX (%)” value on human 5-HT1D receptor [6] stood at 96 ± 2%.
Turning to `CN(C)[C@@H]1CCc2c(cccc2-c2ccccc2Cl)C1` [(R)-CPT], the Ki at human 5-HT1A receptor [1] (setting [7]) is 2140 nM; at human 5-HT1B receptor [2] it was 72.4 nM; on human 5-HT1D receptor [3], 417 nM; on human 5-HT1F receptor, above 10000 nM.
On to `CCCN(CCC)[C@@H]1CCc2c(cccc2-c2ccccc2Cl)C1` [(R)-DCPT], for which the inhibitory constant (Ki) was 117 nM at human 5-HT1A receptor [1] (setting [7]), 55 nM on human 5-HT1B receptor [2], 117 nM at human 5-HT1D receptor [3] and above 10000 nM at human 5-HT1F receptor.
For the compound `CCCN(CCC)[C@@H]1CCc2c(cccc2-c2ccccc2F)C1` [(R)-DFPT], the Ki on human 5-HT1A receptor [1] (setting [7]) is 117 nM; at human 5-HT1B receptor [2] it was 64.6 nM; at human 5-HT1D receptor [3], 107 nM; at human 5-HT1F receptor, above 10000 nM.
As for `CN(C)[C@@H]1CCc2c(cccc2-c2ccco2)C1` [(R)-FAT], the Ki at human 5-HT1A receptor [1] (setting [7]) is 537 nM; at human 5-HT1B receptor [2], 550 nM; on human 5-HT1D receptor [3], 214 nM; on human 5-HT1F receptor it was above 10000 nM.
Consider `CN(C)[C@@H]1CCc2c(cccc2-c2ccccc2F)C1` [(R)-FPT], for which the Ki is 240 nM on human 5-HT1B receptor [2], 912 nM on human 5-HT1D receptor [3] and above 10000 nM on human 5-HT1F receptor.
As to `CN(C)[C@@H]1CCc2c(cccc2-c2cccc3ccccc23)C1` [(R)-NAP], the Ki at human 5-HT1A receptor [1] (setting [7]) was 263 nM; at human 5-HT1B receptor [2], 155 nM; on human 5-HT1D receptor [3] it was 107 nM; on human 5-HT1F receptor, above 10000 nM.
On to `CN(C)[C@@H]1CCc2c(cccc2-c2cccn2C)C1` [(R)-NMP], for which, on human 5-HT1A receptor [1] (setting [7]), the “Affinity (pKi ± SD) 5-HT1A” value is listed as 6.26 ± 0.03. Moreover, the Ki is 339 nM at human 5-HT1B receptor [2], 316 nM at human 5-HT1D receptor [3] and above 10000 nM at human 5-HT1F receptor.
